In US20260297085A1, “1 H-PYRROLO[2,3-B]PYRIDIN-4-YL]-2-OXOPYRROLIDINE-3-CARBONITRILE DERIVATIVES AS TYROSINE KINASE 2 (TYK2) INHIBITORS FOR THE TREATMENT OF INFLAMMATORY DISEASES” (BIOGEN MA INC., priority 2023, published 2026):
Structures can show the parent of a compound that is named as a salt.

Assays:
[1] = target: T1, human TYK2 kinase domain (JH1) (Homo sapiens, UniProt P29597); assay: JH1 biochemical assay for TYK2 (ADP-Glo kinase assay, recombinant JH1 catalytic domain, JAK3-974 peptide, 10 μM ATP)
T1 construct: recombinantly generated catalytic kinase (also known as JH1) domain of human JAK1, JAK2, JAK3 and TYK2
T1 sequence (P29597 897-1176 limits assumed): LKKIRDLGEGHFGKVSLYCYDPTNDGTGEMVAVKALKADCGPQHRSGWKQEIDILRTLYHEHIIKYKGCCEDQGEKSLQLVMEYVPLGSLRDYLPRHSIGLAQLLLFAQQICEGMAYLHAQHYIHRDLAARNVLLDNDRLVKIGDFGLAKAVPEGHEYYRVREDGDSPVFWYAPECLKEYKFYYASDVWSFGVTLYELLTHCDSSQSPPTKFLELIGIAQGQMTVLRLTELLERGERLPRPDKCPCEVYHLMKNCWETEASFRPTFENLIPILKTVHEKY
Experimental: (§1) Compounds of the disclosure were assessed for their ability to inhibit TYK2, JAK1, JAK2, and JAK3 activity. The inhibitory properties of the compounds of the disclosure described herein can be evidenced by testing in any one of the following protocols.
(§2) The kinase activity of recombinantly generated catalytic kinase (also known as JH1) domain of human JAK1, JAK2, JAK3 and TYK2 were evaluated in a plate-based assay using the ADP-Glo™ Kinase Assay platform. Specifically, 4 nM of recombinant JAK1 kinase domain is used to phosphorylate 50 μM of a JAK3-342 (sequence ALVDGYFRLTT) peptide in the presence of 35 μM ATP. Catalytic activities of recombinant JAK2, JAK3 and TYK2 kinase domain (0.2, 0.3 and 2 nM, respectively) are evaluated by the phosphorylation status of the JAK3-974 (50 μM; sequence LPLDKDYYVVR) peptide with the addition of ATP (15, 4 and 10 μM, respectively). The reactions proceed for 100 minutes and the catalytic activity is quantified by first depleting the unused ATP, converting the hydrolyzed ADP into ATP to generate luminescence in a luciferase reaction; which is the basis of the ADP-Glo platform. Compounds are tested at either 10 μM or 1 μM top concentration, 11 points of 3-fold dilution. The data is normalized and the percent activity versus log concentration of compound is fitted with a 4-parameter logistic model to generate a curve and an IC50 value.

[2] = target: T2, human JAK1 kinase domain (JH1) (Homo sapiens, UniProt P23458); assay: JH1 biochemical assay for JAK1 (ADP-Glo kinase assay, recombinant JH1 catalytic domain, JAK3-342 peptide, 35 μM ATP)
T2 construct: recombinantly generated catalytic kinase (also known as JH1) domain of human JAK1, JAK2, JAK3 and TYK2
Experimental: as §1, §2

[3] = target: T3, human JAK2 kinase domain (JH1) (Homo sapiens, UniProt O60674); assay: JH1 biochemical assay for JAK2 (ADP-Glo kinase assay, recombinant JH1 catalytic domain, JAK3-974 peptide, 15 μM ATP)
T3 construct: recombinantly generated catalytic kinase (also known as JH1) domain of human JAK1, JAK2, JAK3 and TYK2
Experimental: as §1, §2

[4] = target: T4, human JAK3 kinase domain (JH1) (Homo sapiens, UniProt P52333); assay: JH1 biochemical assay for JAK3 (ADP-Glo kinase assay, recombinant JH1 catalytic domain, JAK3-974 peptide, 4 μM ATP)
T4 construct: recombinantly generated catalytic kinase (also known as JH1) domain of human JAK1, JAK2, JAK3 and TYK2
Experimental: as §1, §2

T2 sequence (P23458 875-1153 limits assumed): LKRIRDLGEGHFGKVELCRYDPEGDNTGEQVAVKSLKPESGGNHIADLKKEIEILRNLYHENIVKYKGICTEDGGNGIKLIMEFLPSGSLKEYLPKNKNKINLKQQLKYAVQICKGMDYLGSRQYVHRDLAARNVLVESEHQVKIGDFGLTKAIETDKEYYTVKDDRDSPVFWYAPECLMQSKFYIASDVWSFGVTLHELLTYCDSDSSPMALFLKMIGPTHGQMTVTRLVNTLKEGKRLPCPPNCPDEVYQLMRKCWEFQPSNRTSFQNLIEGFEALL
T3 sequence (O60674 849-1124 limits assumed): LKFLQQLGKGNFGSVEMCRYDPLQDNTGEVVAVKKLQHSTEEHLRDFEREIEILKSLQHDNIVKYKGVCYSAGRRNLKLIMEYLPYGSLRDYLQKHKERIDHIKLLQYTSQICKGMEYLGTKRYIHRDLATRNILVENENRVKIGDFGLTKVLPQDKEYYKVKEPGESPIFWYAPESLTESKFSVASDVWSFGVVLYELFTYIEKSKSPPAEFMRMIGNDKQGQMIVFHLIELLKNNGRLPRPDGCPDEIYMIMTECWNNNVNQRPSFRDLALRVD
T4 sequence (P52333 822-1111 limits assumed): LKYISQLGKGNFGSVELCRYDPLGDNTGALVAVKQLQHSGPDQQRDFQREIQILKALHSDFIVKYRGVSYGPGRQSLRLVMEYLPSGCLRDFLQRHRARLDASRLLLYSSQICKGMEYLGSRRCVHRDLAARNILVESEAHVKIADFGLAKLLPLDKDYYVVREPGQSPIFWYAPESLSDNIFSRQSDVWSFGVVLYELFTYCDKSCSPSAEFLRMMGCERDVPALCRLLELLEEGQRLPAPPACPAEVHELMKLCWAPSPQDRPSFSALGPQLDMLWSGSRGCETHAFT

Work on `C[C@@H]1CN(c2ccnn3cc(-c4cnc(N(C)C)nc4)cc23)C(=O)[C@]1(C#N)C1CC1` [Example 91, (3R,4S)-3-cyclopropyl-1-(6-(2-(dimethylamino)pyrimidin-5-yl)pyrrolo[1,2-b]pyridazin-4-yl)-4-methyl-2-oxopyrrolidine-3-carbonitrile] yielded an IC50 ([1]; JH1 kinase domain, ADP-Glo) of 0.02 to 0.05 µM, an IC50 ([2]; JH1 kinase domain, ADP-Glo) of 0.1 to 1 µM and an IC50 ([3]; JH1 kinase domain, ADP-Glo) of 1 to 5 µM. For the same molecule, the IC50 ([4]; JH1 kinase domain, ADP-Glo) was 1 to 5 µM.
Work on `Cn1cc(-c2cc3c(N4CC[C@](C#N)(C5CC5)C4=O)ccnc3[nH]2)cn1` [Example 2, (R)-3-cyclopropyl-1-(2-(1-methyl-1H-pyrazol-4-yl)-1H-pyrrolo[2,3-b]pyridin-4-yl)-2-oxopyrrolidine-3-carbonitrile] yielded an IC50 ([1]; JH1 kinase domain, ADP-Glo) of 0.05 to 0.1 µM, an IC50 ([2]; JH1 kinase domain, ADP-Glo) of 0.1 to 1 µM and an IC50 ([3]; JH1 kinase domain, ADP-Glo) of 0.1 to 1 µM. For the same molecule, the IC50 ([4]; JH1 kinase domain, ADP-Glo) was 1 to 5 µM.
`COc1ncc(-c2cc3c(N4C[C@@H](C)[C@@](C#N)(C5CC5)C4=O)ccnn3c2)cn1` [Example 76, (3R,4S)-3-cyclopropyl-1-(6-(2-methoxypyrimidin-5-yl)pyrrolo[1,2-b]pyridazin-4-yl)-4-methyl-2-oxopyrrolidine-3-carbonitrile] gave an IC50 ([1]; JH1 kinase domain, ADP-Glo) of 0.05 to 0.1 µM, an IC50 ([2]; JH1 kinase domain, ADP-Glo) of 0.1 to 1 µM and an IC50 ([3]; JH1 kinase domain, ADP-Glo) of 1 to 5 µM. For the same molecule, the IC50 ([4]; JH1 kinase domain, ADP-Glo) was 1 to 5 µM.
`C[C@@H]1CN(c2ncnc3cc(-c4cnn(C)c4)sc23)C(=O)[C@]1(C#N)C1CC1` [Example 286, (3R,4S)-3-cyclopropyl-4-methyl-1-(6-(1-methyl-1H-pyrazol-4-yl)thieno[3,2-d]pyrimidin-4-yl)-2-oxopyrrolidine-3-carbonitrile] was tested, and the IC50 ([1]; TYK2 JH1, ADP-Glo) was > 0.1 µM, the IC50 ([2]; JAK1 JH1, ADP-Glo) was > 10 µM and the IC50 ([3]; JAK2 JH1, ADP-Glo) was 1 to 5 µM. For the same molecule, the IC50 ([4]; JAK3 JH1, ADP-Glo) was > 10 µM.
Work on `C[C@@H]1CN(c2ccnn3cc(-c4cncn4C)cc23)C(=O)[C@]1(C#N)C1CC1` [Example 89, (3R,4S)-3-cyclopropyl-4-methyl-1-(6-(1-methyl-1H-imidazol-5-yl)pyrrolo[1,2-b]pyridazin-4-yl)-2-oxopyrrolidine-3-carbonitrile] yielded an IC50 ([1]; JH1 kinase domain, ADP-Glo) of 0.02 to 0.05 µM, an IC50 ([2]; JH1 kinase domain, ADP-Glo) of 1 to 5 µM and an IC50 ([3]; JH1 kinase domain, ADP-Glo) of 1 to 5 µM. The IC50 ([4]; JH1 kinase domain, ADP-Glo) was 1 to 5 µM.
`COc1cnc(-c2cc3c(N4C[C@@H](C)[C@@](C#N)(C5CC5)C4=O)ccnn3c2)cn1` [Example 132, (3R,4S)-3-cyclopropyl-1-(6-(5-methoxypyrazin-2-yl)pyrrolo[1,2-b]pyridazin-4-yl)-4-methyl-2-oxopyrrolidine-3-carbonitrile trifluoroacetate] gave an IC50 ([1]; JH1 kinase domain, ADP-Glo) of 0.05 to 0.1 µM, an IC50 ([2]; JH1 kinase domain, ADP-Glo) of 1 to 5 µM and an IC50 ([3]; JH1 kinase domain, ADP-Glo) of 1 to 5 µM. For the same molecule, the IC50 ([4]; JH1 kinase domain, ADP-Glo) was 1 to 5 µM.
For `CC[C@H]1CN(c2ccnn3cc(-c4cnn(C)c4)cc23)C(=O)[C@]1(C#N)C1CC1` [Example 24, (3R,4R)-3-cyclopropyl-4-ethyl-1-(6-(1-methyl-1H-pyrazol-4-yl)pyrrolo[1,2-b]pyridazin-4-yl)-2-oxopyrrolidine-3-carbonitrile], the IC50 ([1]; JH1 kinase domain, ADP-Glo) was > 0.1 µM, the IC50 ([2]; JH1 kinase domain, ADP-Glo) was 5 to 10 µM and the IC50 ([3]; JH1 kinase domain, ADP-Glo) was 5 to 10 µM. For the same molecule, the IC50 ([4]; JH1 kinase domain, ADP-Glo) was > 10 µM.
`COc1cccnc1-c1cc2c(N3C[C@@H](C)[C@@](C#N)(C4CC4)C3=O)ccnn2c1` [Example 146, (3R,4S)-3-cyclopropyl-1-(6-(3-methoxypyridin-2-yl)pyrrolo[1,2-b]pyridazin-4-yl)-4-methyl-2-oxopyrrolidine-3-carbonitrile trifluoroacetate] was tested, and the IC50 ([1]; JH1 kinase domain, ADP-Glo) was > 0.1 µM, the IC50 ([2]; JH1 kinase domain, ADP-Glo) was 1 to 5 µM and the IC50 ([3]; JH1 kinase domain, ADP-Glo) was 5 to 10 µM. For the same molecule, the IC50 ([4]; JH1 kinase domain, ADP-Glo) was 5 to 10 µM.
`C[C@@H]1C[C@@](C#N)(C2CC2)C(=O)N1c1ccnn2cc(-c3cnn(C)c3)cc12` [Example 17, (3S,5R)-3-cyclopropyl-5-methyl-1-(6-(1-methyl-1H-pyrazol-4-yl)pyrrolo[1,2-b]pyridazin-4-yl)-2-oxopyrrolidine-3-carbonitrile] was tested, and the IC50 ([1]; JH1 kinase domain, ADP-Glo) was > 0.1 µM, the IC50 ([2]; JH1 kinase domain, ADP-Glo) was 1 to 5 µM and the IC50 ([3]; JH1 kinase domain, ADP-Glo) was 0.1 to 1 µM. It also gave an IC50 ([4]; JH1 kinase domain, ADP-Glo) of 5 to 10 µM.
`Cc1nc(-c2cc3c(N4C[C@@H](C)[C@@](C#N)(C5CC5)C4=O)ccnn3c2)ccc1F` [Example 147, (3R,4S)-3-cyclopropyl-1-(6-(5-fluoro-6-methylpyridin-2-yl)pyrrolo[1,2-b]pyridazin-4-yl)-4-methyl-2-oxopyrrolidine-3-carbonitrile trifluoroacetate] gave an IC50 ([1]; JH1 kinase domain, ADP-Glo) of 0.005 to 0.02 µM, an IC50 ([2]; JH1 kinase domain, ADP-Glo) of 0.1 to 1 µM and an IC50 ([3]; JH1 kinase domain, ADP-Glo) of 0.1 to 1 µM. It also gave an IC50 ([4]; JH1 kinase domain, ADP-Glo) of 0.1 to 1 µM.
`C[C@@H]1CN(c2nc(-c3cccc4cnn(C)c34)cn3nccc23)C(=O)[C@]1(C#N)C1CC1` [Example 242, (3R,4S)-3-cyclopropyl-4-methyl-1-(6-(1-methyl-1H-indazol-7-yl)pyrazolo[1,5-a]pyrazin-4-yl)-2-oxopyrrolidine-3-carbonitrile] was tested, and the IC50 ([1]; TYK2 JH1, ADP-Glo) was > 0.1 µM, the IC50 ([2]; JAK1 JH1, ADP-Glo) was > 10 µM and the IC50 ([3]; JAK2 JH1, ADP-Glo) was > 10 µM. The IC50 ([4]; JAK3 JH1, ADP-Glo) was > 10 µM.
